Experimental data from patent US20220125348A1, “DETECTION OF INTERFERENT IN ANALYTE SENSING” (MEDTRONIC MINIMED, INC., priority 2020, published 2022).

Experiment: in vivo study of the concentration of acetaminophen in plasma and in interstitial fluid over time (FIG. 8)
Source text: FIG. 8 illustrates an in vivo study of the concentration of acetaminophen in plasma and in interstitial fluid over time;
FIG. 8 further illustrates acetaminophen measured in concentration in vivo in plasma, at line 82, and in interstitial fluid, at line 84.

- measured acetaminophen concentration in interstitial fluid compared with plasma: less than that of plasma
- time acetaminophen is present in interstitial fluid (interstitial fluid): over six
- time acetaminophen is present in plasma (plasma): over six
SMILES: CC(=O)Nc1ccc(O)cc1 [acetaminophen]
